This passage reports IC50, selectivity ratio and Activity results from ChEMBL document CHEMBL5257091, “Hydrazinecarbonyl-thiazol-2-acetamides with pronounced apoptotic behavior: synthesis, in vitro/in vivo anti-proliferative activity and molecular modeling simulations” (Bioorg Med Chem Lett, 2023).

Each structure is given as a SMILES string.

In data set [1] the test system is MCF7. The data set can be described thus: Antiproliferative activity against human MCF7 cells assessed as inhibition of cell growth incubated for 24 hrs by MTT assay. It counts as functional, cell-based. Conditions: MCF7, 24 h. On the technique in general: Formazan colour is commonly taken as a measure of viable cells.
The subject of data set [2] is HeLa. The data set can be described thus: Antiproliferative activity against human HeLa cells assessed as inhibition of cell growth incubated for 24 hrs by MTT assay. The class given is functional, cell-based.
Data set [3] has as its system HCT-116. The data set can be described thus: cells. To be noted: Homo sapiens, HCT-116, 24 h.
Description: Antiproliferative activity against human HCT-116 cells assessed as inhibition of cell growth incubated for 24 hrs by MTT assay
The subject of data set [4] is HepG2. The data set can be described thus: Antiproliferative activity against human HepG2 cells assessed as inhibition of cell growth incubated for 24 hrs by MTT assay. The class given is functional, cell-based. To be noted: HepG2, 24 h.
The test system of data set [5] is HEp-2. The data set can be described thus: Antiproliferative activity against human HEp-2 cells assessed as inhibition of cell growth incubated for 24 hrs by MTT assay. It counts as functional, cell-based. To be noted: HEp-2, 24 h.
Data set [6] can be described thus: Selectivity index, ratio of IC50 for cytotoxicity against human WI-38 cells to IC50 for antiproliferative activity against human HCT-116 cells. The class given is toxicity, cell-based. To be noted: WI-38 cells and HCT-116 cells, read-out: Ratio IC50.
Data set [7] concerns the target Epidermal growth factor receptor (Homo sapiens, UniProt P00533). The data set can be described thus: Inhibition of EGFR (unknown origin) by fluorimetric assay.
Data set [8] in a line: Cytotoxicity against human WI-38 cells assessed as inhibition of cell growth incubated for 24 hrs by MTT assay. The class given is toxicity, cell-based.
The nature of data set [9]: Selectivity index, ratio of IC50 for cytotoxicity against human WI-38 cells to IC50 for antiproliferative activity against human MCF7 cells. The class given is toxicity, cell-based. To be noted: WI-38 cells and MCF7 cells, read-out: Ratio IC50.
Data set [10] can be described thus: Selectivity index, ratio of IC50 for cytotoxicity against human WI-38 cells to IC50 for antiproliferative activity against human HEp-2 cells. To be noted: WI-38 cells and HEp-2 cells, read-out: Ratio IC50. The class given is toxicity, cell-based.
Data set [11] in a line: Selectivity index, ratio of IC50 for cytotoxicity against human WI-38 cells to IC50 for antiproliferative activity against human HeLa cells. It counts as toxicity, cell-based. To be noted: WI-38 cells and HeLa cells, read-out: Ratio IC50.
The nature of data set [12]: Selectivity index, ratio of IC50 for cytotoxicity against human WI-38 cells to IC50 for antiproliferative activity against human HepG2 cells. The class given is toxicity, cell-based. Conditions: WI-38 cells and HepG2 cells, read-out: Ratio IC50.
The test system of data set [13] is PC-3. The data set can be described thus: Antiproliferative activity against human PC-3 cells assessed as inhibition of cell growth incubated for 24 hrs by MTT assay. Conditions: PC-3, 24 h. It counts as functional, cell-based.
In data set [14] the target is T1, Dihydrofolate reductase (Homo sapiens, UniProt P00374).
T1 sequence (P00374 whole entry): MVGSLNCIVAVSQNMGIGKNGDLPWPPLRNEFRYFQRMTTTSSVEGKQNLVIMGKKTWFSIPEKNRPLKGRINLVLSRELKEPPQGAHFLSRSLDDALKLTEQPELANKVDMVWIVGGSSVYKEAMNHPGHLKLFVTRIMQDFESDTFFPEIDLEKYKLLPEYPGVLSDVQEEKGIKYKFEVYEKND
The data set can be described thus: Inhibition of DHFR (unknown origin) incubated for 2 to 5 mins by absorbance based analysis.

Data set [15] is described as follows: Selectivity index, ratio of IC50 for cytotoxicity against human WI-38 cells to IC50 for antiproliferative activity against human PC-3 cells. The class given is toxicity, cell-based. Conditions: WI-38 cells and PC-3 cells, read-out: Ratio IC50.
The test system of data set [16] is Ehrlich. The data set can be described thus: Antitumor activity against mouse Ehrlich cells implanted in Swiss albino mouse assessed as reduction in tumor volume at 10 mg/kg, iv administered once daily for 20 days relative to control. Further details: scale not given: the % may be the effect or the level left. Conditions: time 20 day. The class given is functional.

The nature of data set [17]: Toxicity in Swiss albino mouse implanted with mouse Ehrlich cells assessed as reduction in body weight gain at 10 mg/kg, iv administered once daily for 20 days relative to control. Further details: scale not given: the % may be the effect or the level left. It counts as organism-based. To be noted: in vivo, 480 h, time 20 day.
Data set [18] can be described thus: Toxicity in Swiss albino mouse implanted with mouse Ehrlich cells assessed as mean body weight at 10 mg/kg, iv administered once daily for 20 days (reference value: 30 g). It counts as organism-based. Conditions: in vivo, 480 h, time 20 day.

The IC50 is the concentration at which inhibition is half-maximal.

Chain of Epidermal growth factor receptor (P00533 whole entry): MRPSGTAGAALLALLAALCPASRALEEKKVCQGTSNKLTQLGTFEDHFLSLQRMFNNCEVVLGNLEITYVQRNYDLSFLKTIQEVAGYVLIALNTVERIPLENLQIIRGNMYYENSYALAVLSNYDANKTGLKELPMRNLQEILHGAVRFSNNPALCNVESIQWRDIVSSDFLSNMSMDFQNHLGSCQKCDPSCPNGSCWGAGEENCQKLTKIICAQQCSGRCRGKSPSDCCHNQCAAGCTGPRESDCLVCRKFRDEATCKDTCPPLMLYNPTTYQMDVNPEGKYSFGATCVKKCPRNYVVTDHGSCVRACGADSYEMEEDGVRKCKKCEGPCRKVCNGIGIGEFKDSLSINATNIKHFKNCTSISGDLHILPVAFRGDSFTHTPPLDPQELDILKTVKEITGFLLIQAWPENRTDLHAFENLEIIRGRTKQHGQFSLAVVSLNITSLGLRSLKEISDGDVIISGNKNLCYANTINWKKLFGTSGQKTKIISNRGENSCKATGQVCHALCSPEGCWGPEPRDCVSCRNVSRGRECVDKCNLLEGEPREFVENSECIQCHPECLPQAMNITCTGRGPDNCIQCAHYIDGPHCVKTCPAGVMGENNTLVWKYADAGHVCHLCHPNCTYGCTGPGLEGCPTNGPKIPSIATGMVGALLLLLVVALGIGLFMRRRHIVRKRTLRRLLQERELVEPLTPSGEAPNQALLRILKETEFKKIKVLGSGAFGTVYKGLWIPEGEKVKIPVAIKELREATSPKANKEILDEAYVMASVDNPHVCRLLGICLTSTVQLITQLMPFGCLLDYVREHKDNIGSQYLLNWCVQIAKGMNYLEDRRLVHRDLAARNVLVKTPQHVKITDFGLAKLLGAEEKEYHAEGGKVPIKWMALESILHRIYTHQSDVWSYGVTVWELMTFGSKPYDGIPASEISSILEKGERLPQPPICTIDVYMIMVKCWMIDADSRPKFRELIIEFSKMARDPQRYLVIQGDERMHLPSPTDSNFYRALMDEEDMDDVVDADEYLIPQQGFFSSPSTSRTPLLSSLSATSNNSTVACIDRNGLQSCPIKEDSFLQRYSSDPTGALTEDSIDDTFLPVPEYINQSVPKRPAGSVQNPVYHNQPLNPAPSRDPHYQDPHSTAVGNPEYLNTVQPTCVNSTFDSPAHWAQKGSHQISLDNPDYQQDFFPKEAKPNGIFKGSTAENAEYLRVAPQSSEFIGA

For `CC(=O)NNC(=O)c1csc(NC(C)=O)n1`, the IC50 in data set [1] stood at 49.4 µM; in [2], 57.4 µM; in [3], 69.3 µM; in data set [4], 87.2 µM; in data set [5], 72.1 µM.
Regarding `CC(=O)Nc1nc(C(=O)NNC(=O)CCN2CCOCC2)cs1`, the selectivity ratio in data set [6] is 4.06; in data set [9] it was 9.2; in data set [10], 5.82; in [11], 14; in [12], 7.29; in [15], 5.08. Also, the IC50 in data set [7] was found to be 0.143 µM; in [1], 5.81 µM; in data set [2] it was 3.81 µM; in data set [13], 10.5 µM; in data set [14] it was 0.159 µM; in data set [3], 13.2 µM. Moreover, the IC50 in data set [4] was found to be 7.34 µM; in data set [5], 9.19 µM. Further, in data set [8], the IC50 at 24 h is 53.5 µM.
With `CC(=O)Nc1nc(C(=O)NNC(=O)CN2CCN(C)CC2)cs1`, the IC50 in data set [1] is 62.8 µM; in [2], 78.6 µM; in data set [3], 91.8 µM; in [4] it was 83.6 µM; in [5], 89.9 µM.
On to `CC(=O)Nc1nc(C(=O)NNC(=O)CCl)cs1`, for which the 50% inhibitory concentration (IC50) in data set [1] came to 39.1 µM; in data set [2], 35.3 µM; in [13], 54.7 µM; in [3] it was 52.3 µM; in [4], 43.8 µM; in [5], 58 µM.
As for `CC(=O)Nc1nc(C(=O)NNC(=O)CCN2CCN(C)CC2)cs1`, the selectivity ratio in data set [6] worked out at 2.54; in data set [9] it was 5.6; in data set [10], 4.17; in data set [11], 5.92; in data set [12], 4.76; in data set [15], 3.27. Besides, the IC50 was 0.131 µM in [7]; 8.36 µM in data set [1]; 7.92 µM in [2]; 14.3 µM in [13]; 0.678 µM in data set [14]; 18.4 µM in [3]. Moreover, the results for the IC50 in data set [4] and in data set [5] were 9.85 µM and 11.2 µM, respectively. Besides, the IC50 at 24 h in data set [8] amounted to 46.9 µM.
On to `CCC(=O)NNC(=O)c1csc(NC(C)=O)n1`, for which the IC50 in data set [1] was found to be 32.8 µM; in [2], 26.9 µM; in data set [13], 47.5 µM; in data set [3] it was 42.7 µM; in data set [4], 39.3 µM; in [5], 43.2 µM.
For the molecule `CC(=O)Nc1nc(C(=O)NNC(=O)CCCl)cs1`, the figures for the IC50 in data set [1], in data set [2] and in data set [5] were 69.2 µM, 86.4 µM and 93.2 µM, respectively.
For the molecule `CC(=O)Nc1nc(C(=O)NNC(=O)CCN2CCN(Cc3ccccc3)CC2)cs1`, the concentration for half-maximal inhibition (IC50) is 29.3 µM in [1]; 23.6 µM in [2]; 34.4 µM in data set [13]; 37.1 µM in data set [3]; 28.7 µM in [4]; 39 µM in data set [5].
Consider `CC(=O)Nc1nc(C(=O)NNC(=O)CN2CCCCC2)cs1`, for which the selectivity ratio in data set [6] turned out to be 2.47; in data set [9], 3.68; in data set [10], 3.07; in data set [11], 4.34; in [12], 4.88; in data set [15], 3.35. Further, the IC50 at 24 h in [8] amounted to 60.5 µM. Besides, the IC50 in [1] was 16.4 µM; in data set [2], 13.9 µM; in data set [13], 18 µM; in data set [3], 24.5 µM; in data set [4] it was 12.4 µM; in data set [5], 19.7 µM.
With `CC(=O)Nc1nc(C(=O)NNC(=O)CN2CCOCC2)cs1`, the selectivity ratio came to 1.41 in [6]; 2.73 in data set [9]; 2.17 in [10]; 2.42 in data set [11]; 1.79 in data set [12]; 1.25 in [15]. Moreover, in data set [8], the IC50 at 24 h stood at 37.2 µM. The IC50 in [1] is 13.6 µM; in [2], 15.5 µM; in [13] it was 29.8 µM; in data set [3], 26.4 µM; in [4], 20.8 µM; in data set [5] it was 17.2 µM.
Turning to `CC(=O)Nc1nc(C(=O)NNC(=O)CN2CCN(Cc3ccccc3)CC2)cs1`, the IC50 in [1] came to 57.7 µM; in data set [2], 52.6 µM; in [13], 92.3 µM; in data set [3], 66 µM; in data set [4] it was 74.5 µM; in [5], 84.8 µM.
With `COc1cccc2c1C(=O)c1c(O)c3c(c(O)c1C2=O)C[C@@](O)(C(=O)CO)C[C@@H]3O[C@H]1C[C@H](N)[C@H](O)[C@H](C)O1` [DOXORUBICIN], the Activity in data set [16] turned out to be 78.9%; in [17] it was 25%; in [18], 27 g.
